The values below come from patent US20240239894A1, “THERAPEUTIC BINDING MOLECULES” (MedImmune Limited, priority 2020, published 2024).

In test [1] the test system is DLD1 BRCA2−/− cells. Description: 6-day cytotoxicity assay of warheads. Type of test: cell-based. From the text: (§1) MMAE=negative control, microtubule-inhibitor warhead.
(§2) Additionally, HR-deficiency increases sensitivity to the SG3932 warhead. […] Cell viability was reduced in both wild-type and BRCA2−/− cells when treated with the MMAE warhead.

Test [2] relates to DLD1 wt cells. Put plainly: 6-day cytotoxicity assay of warheads. As to conditions: wild-type cells. Type of test: cell-based.
Source text: as §1, §2

Non-standard residues stand in square brackets, D forms with d. Residues, ends and D or L forms follow the SMILES beside them. *: point of attachment. Dolaproine = CO[C@@H]([C@@H]1CCCN1)[C@@H](C)C(=O)O; Dil = CC[C@H](C)[C@H](NC)[C@@H](CC(=O)O)OC; X1 = C[C@@H](N*)[C@@H](O)c1ccccc1; NMeV = CN[C@H](C(=O)O)C(C)C

Regarding `CC[C@H](C)[C@@H]([C@@H](CC(=O)N1CCC[C@H]1[C@H](OC)[C@@H](C)C(=O)N[C@H](C)[C@@H](O)c1ccccc1)OC)N(C)C(=O)[C@@H](NC(=O)[C@@H](NC)C(C)C)C(C)C` [MMAE] (H-[NMeV]V[Dil][Dolaproine]-X1), the cell viability result in test [1] and in test [2] was “reduced” throughout.
